Measurements as given in US20150305334A1, “USE OF SUBSTITUTED 1-(ARYL ETHYNYL)-, 1-(HETEROARYL ETHYNYL)-, 1-(HETEROCYCLYL ETHYNYL)- AND 1-(CYCLOALKENYL ETHYNYL)-CYCLOHEXANOLS AS ACTIVE AGENTS AGAINST ABIOTIC PLANT STRESS” (BAYER CROPSCIENCE AG, priority 2012, published 2015).

Assays:
Type in all cases: in vivo
[1] = tested on: Zea mays; test: Drought stress test on greenhouse crop plants, spray application, efficacy vs untreated stressed control (ZEAMX); conditions: dosage 25 g/ha
Method: (§1) Seeds of monocotyledonous and dicotyledonous crop plants were laid out in sandy loam in wood-fiber pots, covered with soil or sand and cultivated in a greenhouse under good growth conditions. The test plants were treated at the early leaf stage (BBCH10-BBCH13). To assure uniform water supply before commencement of stress, the potted plants were supplied with water by dam irrigation prior to substance application. The compounds according to the invention, formulated in the form of wettable powders (WP), were sprayed onto the green parts of the plants as an aqueous suspension at an equivalent water application rate of 600 l/ha with addition of 0.2% wetting agent (e.g. agrotin). Substance application was followed immediately by stress treatment of the plants. For this purpose, the pots were transferred into plastic inserts in order to prevent them from subsequently drying out too quickly. […] After the recovery phase had ended, the intensities of damage were analyzed in visual comparison to untreated, unstressed controls of the same age. The intensity of damage was first recorded as a percentage (100%=plants have died, 0%=like control plants). […] EF: efficacy (%) DVus: damage value of the untreated, stressed control DVts: damage value of the plants treated with test compound In each trial, 3 pots per crop and dosage were treated and evaluated; the resulting efficacies are thus averages. […]

[2] = tested on: Brassica napus; test: Drought stress test on greenhouse crop plants, spray application, efficacy vs untreated stressed control (BRSNS); conditions: dosage 250 g/ha
Method: as §1

[3] = tested on: Triticum aestivum; test: Drought stress test on greenhouse crop plants, spray application, efficacy vs untreated stressed control (TRZAS); conditions: dosage 25 g/ha
Method: as §1

SMILES	EF (ZEAMX) [1]	EF (BRSNS) [2]	EF (TRZAS) [3]
COC(=O)c1ccccc1C#CC1(O)C(C)CCCC1C (centres unmarked) [I.13-116, Methyl 2-[(1-hydroxy-2,6-dimethylcyclohexyl)ethynyl]benzoate]	>5%	–	–
CC1CCCC(C)(C)C1(O)C#Cc1ccccc1C(=O)O (centres unmarked) [I.1-107, 2-[(1-Hydroxy-2,2,6-trimethylcyclohexyl)ethynyl]benzoic acid]	–	>5%	–
COC(=O)c1ccccc1C#CC1(O)C(C)CCCC1(C)C (centres unmarked) [I.1-116, Methyl 2-[(1-hydroxy-2,2,6-trimethylcyclohexyl)ethynyl]benzoate]	>5%	>5%	>5%
